For one assay, the system named is Plasmodium falciparum. The assay is described as follows: Antimalarial activity against Plasmodium falciparum after 48 hrs by microbeta scintillation counting-based [3H]-hypoxanthine incorporation assay. The assay is classed as functional, organism-based.
The target of assay [1] is cGMP-dependent protein kinase (Plasmodium falciparum, UniProt W7JX98). The experiment in a line: Inhibition of Plasmodium falciparum protein kinase G.
For assay [2], the target named is Tyrosine-protein kinase Yes (Homo sapiens) (UniProt P07947). The assay is described as follows: Inhibition of human YES1 at 100 nM.
For assay [3], the target named is Tyrosine-protein kinase Lck (Homo sapiens) (UniProt P06239). The experiment in a line: Inhibition of human LCK at 100 nM.
Another assay is filed under the species Homo sapiens. The settings on record: at 100 nM.
Assay [4] concerns the target T1, Serine/threonine-protein kinase D1 (Homo sapiens) (UniProt Q15139).
T1 sequence (whole entry): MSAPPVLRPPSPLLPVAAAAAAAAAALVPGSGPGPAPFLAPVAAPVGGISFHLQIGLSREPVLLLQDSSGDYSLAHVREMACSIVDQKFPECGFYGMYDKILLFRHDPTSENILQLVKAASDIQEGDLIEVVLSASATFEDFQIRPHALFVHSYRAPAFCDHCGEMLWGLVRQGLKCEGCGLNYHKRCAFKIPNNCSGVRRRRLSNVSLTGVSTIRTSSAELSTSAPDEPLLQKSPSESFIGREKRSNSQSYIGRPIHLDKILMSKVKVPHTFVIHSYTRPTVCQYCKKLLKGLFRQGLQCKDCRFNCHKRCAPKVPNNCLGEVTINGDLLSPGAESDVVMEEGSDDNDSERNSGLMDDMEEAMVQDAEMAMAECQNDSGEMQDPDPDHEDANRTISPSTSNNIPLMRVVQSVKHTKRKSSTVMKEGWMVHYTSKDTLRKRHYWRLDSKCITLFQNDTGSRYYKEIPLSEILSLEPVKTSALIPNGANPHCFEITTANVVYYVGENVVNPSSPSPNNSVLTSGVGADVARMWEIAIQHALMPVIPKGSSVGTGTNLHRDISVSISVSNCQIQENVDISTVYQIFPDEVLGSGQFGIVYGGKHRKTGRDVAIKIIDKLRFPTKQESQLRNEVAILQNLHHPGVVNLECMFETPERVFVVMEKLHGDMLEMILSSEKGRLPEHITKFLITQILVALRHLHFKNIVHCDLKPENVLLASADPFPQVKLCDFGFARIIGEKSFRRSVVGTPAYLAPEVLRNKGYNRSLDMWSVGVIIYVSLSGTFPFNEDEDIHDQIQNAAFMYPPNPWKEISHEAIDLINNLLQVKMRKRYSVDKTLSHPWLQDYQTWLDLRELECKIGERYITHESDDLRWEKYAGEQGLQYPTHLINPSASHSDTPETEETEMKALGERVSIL
The experiment in a line: Inhibition of human PKD1 at 100 nM.

Assay [5] has as its target T2, Inhibitor of nuclear factor kappa-B kinase subunit epsilon (Homo sapiens) (UniProt Q14164).
T2 sequence (whole entry): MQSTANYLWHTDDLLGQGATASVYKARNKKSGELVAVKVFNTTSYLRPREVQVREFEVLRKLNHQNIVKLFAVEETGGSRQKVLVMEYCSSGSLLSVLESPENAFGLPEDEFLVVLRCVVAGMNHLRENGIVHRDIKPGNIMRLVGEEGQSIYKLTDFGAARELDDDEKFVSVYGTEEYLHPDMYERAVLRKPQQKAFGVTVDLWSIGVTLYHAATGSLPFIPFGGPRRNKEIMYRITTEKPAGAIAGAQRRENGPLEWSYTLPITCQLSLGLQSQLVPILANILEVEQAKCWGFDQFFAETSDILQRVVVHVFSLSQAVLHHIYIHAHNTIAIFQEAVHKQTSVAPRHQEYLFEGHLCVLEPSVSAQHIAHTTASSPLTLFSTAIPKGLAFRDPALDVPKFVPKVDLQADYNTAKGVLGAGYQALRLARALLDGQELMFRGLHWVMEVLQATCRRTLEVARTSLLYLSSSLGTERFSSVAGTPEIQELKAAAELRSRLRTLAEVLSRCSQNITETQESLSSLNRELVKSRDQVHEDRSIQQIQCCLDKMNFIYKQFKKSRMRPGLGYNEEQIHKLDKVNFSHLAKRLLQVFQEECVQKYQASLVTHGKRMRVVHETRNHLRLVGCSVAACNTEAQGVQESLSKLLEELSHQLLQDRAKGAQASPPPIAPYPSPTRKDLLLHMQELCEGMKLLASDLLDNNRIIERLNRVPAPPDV
The conditions noted are these: at 100 nM.
Description: Inhibition of human IKKepsilon at 100 nM

In assay [6] the target is T3, Inhibitor of nuclear factor kappa-B kinase subunit beta (Homo sapiens) (UniProt O14920).
T3 sequence (whole entry): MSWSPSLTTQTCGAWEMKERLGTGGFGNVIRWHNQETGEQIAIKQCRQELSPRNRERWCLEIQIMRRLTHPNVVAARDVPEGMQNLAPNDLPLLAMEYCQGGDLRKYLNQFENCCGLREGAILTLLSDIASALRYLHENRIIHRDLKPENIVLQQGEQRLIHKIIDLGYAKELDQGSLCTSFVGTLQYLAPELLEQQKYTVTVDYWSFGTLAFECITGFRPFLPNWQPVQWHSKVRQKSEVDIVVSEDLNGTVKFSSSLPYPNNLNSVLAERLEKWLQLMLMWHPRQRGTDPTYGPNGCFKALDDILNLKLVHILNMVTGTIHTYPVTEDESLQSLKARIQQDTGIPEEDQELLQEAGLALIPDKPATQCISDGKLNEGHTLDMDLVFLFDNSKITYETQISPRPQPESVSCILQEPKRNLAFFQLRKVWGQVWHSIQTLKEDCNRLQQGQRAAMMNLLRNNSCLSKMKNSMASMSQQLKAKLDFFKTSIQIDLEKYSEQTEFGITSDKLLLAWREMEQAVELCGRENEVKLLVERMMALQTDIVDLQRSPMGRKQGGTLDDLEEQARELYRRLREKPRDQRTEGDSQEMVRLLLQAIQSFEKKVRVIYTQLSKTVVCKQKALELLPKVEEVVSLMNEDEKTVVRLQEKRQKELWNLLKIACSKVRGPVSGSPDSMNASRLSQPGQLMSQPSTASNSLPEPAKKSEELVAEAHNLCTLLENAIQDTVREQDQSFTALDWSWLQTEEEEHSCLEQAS
The conditions noted are these: at 100 nM.
Description: Inhibition of human IKKb at 100 nM

In assay [7] the target is Receptor tyrosine-protein kinase erbB-4 (Homo sapiens) (UniProt Q15303). The assay is described as follows: Inhibition of human HER4 at 100 nM.
The target in assay [8] is Misshapen-like kinase 1 (Homo sapiens) (UniProt Q8N4C8). The experiment in a line: Inhibition of human MINK1 at 100 nM.
For assay [9], the target named is Casein kinase I isoform alpha (Homo sapiens) (UniProt P48729). The assay is described as follows: Inhibition of human CK1 at 100 nM.

Where only a bound is given, the exact number is not on record here.

cGMP-dependent protein kinase, sequence (W7JX98 whole entry): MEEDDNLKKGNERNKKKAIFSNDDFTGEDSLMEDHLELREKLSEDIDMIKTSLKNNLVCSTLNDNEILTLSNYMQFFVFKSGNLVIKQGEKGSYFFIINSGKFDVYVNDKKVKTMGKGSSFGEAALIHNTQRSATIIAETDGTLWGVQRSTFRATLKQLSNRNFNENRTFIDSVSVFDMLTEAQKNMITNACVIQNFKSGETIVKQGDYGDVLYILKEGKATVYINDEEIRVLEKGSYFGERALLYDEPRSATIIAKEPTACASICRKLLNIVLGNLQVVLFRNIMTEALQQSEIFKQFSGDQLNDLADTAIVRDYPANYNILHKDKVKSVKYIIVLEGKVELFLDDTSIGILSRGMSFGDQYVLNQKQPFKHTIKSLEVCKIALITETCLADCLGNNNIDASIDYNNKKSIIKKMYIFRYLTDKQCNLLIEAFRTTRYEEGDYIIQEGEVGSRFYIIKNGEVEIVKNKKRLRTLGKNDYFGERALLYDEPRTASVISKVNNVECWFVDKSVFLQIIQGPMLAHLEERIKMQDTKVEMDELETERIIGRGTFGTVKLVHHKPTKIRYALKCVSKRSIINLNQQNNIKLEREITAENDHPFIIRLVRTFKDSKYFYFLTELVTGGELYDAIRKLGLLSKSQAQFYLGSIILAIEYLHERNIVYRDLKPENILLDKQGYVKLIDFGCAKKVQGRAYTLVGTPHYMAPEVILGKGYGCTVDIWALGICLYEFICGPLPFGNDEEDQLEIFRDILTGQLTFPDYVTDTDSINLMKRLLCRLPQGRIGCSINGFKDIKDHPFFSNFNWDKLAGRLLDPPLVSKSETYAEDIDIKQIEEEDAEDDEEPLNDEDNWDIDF
Receptor tyrosine-protein kinase erbB-4 (Homo sapiens), sequence (Q15303 whole entry): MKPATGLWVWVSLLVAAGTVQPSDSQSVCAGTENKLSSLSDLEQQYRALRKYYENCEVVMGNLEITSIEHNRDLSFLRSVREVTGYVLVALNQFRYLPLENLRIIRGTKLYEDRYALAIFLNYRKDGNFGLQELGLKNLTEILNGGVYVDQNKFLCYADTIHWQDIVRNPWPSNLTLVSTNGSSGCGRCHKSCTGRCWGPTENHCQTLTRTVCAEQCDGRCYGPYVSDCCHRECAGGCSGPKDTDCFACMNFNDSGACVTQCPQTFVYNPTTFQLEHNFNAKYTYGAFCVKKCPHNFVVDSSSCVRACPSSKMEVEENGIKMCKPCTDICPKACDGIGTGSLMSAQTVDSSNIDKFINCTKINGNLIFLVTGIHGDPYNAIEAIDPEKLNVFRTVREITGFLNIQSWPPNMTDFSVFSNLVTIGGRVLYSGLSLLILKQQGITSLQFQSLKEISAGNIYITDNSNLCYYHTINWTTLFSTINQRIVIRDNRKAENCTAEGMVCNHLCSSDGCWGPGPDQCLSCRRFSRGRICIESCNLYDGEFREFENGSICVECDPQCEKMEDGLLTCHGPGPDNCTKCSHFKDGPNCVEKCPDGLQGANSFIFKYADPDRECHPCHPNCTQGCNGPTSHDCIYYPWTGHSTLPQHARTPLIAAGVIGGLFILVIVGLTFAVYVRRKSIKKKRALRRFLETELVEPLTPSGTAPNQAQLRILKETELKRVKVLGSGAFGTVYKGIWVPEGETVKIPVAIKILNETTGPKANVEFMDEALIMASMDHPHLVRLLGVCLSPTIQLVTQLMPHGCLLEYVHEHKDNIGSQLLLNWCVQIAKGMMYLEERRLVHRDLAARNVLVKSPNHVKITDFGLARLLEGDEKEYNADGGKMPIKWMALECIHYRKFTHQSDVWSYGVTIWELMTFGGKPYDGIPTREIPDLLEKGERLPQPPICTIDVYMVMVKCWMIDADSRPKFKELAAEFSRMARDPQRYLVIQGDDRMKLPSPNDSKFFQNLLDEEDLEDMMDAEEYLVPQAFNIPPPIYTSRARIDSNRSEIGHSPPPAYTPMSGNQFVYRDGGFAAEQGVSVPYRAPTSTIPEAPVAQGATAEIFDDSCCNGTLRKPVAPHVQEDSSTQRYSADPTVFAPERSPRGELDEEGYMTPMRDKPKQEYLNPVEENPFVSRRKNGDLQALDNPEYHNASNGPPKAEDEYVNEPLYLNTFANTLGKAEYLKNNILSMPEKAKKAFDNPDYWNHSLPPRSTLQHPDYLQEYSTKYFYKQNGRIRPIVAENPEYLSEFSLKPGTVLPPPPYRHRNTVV
Tyrosine-protein kinase Lck (Homo sapiens), sequence (P06239 2-509 limits assumed): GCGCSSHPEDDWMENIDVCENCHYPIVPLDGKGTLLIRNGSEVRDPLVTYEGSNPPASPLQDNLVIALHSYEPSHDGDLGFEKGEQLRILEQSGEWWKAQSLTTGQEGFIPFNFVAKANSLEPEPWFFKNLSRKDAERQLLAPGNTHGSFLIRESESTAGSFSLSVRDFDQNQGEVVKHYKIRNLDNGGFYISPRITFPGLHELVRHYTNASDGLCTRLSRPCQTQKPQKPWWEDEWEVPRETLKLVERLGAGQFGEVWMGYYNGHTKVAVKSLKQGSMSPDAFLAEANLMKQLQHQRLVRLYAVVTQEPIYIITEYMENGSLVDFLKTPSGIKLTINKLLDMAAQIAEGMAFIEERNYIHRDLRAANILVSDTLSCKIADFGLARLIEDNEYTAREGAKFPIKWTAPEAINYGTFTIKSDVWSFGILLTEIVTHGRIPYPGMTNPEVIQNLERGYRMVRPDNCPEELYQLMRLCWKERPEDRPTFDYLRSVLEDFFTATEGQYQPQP
Casein kinase I isoform alpha (Homo sapiens), sequence (P48729 2-337 limits assumed): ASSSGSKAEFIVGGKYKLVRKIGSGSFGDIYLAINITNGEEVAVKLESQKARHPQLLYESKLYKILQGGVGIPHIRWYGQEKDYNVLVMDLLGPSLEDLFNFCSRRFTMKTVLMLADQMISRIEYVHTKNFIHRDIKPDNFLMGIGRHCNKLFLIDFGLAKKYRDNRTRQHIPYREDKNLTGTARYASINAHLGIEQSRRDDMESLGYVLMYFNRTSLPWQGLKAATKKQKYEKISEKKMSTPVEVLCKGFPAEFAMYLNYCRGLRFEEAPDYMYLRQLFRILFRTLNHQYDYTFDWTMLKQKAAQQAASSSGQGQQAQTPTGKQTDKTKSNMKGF
Tyrosine-protein kinase Yes (Homo sapiens), sequence (P07947 2-543 limits assumed): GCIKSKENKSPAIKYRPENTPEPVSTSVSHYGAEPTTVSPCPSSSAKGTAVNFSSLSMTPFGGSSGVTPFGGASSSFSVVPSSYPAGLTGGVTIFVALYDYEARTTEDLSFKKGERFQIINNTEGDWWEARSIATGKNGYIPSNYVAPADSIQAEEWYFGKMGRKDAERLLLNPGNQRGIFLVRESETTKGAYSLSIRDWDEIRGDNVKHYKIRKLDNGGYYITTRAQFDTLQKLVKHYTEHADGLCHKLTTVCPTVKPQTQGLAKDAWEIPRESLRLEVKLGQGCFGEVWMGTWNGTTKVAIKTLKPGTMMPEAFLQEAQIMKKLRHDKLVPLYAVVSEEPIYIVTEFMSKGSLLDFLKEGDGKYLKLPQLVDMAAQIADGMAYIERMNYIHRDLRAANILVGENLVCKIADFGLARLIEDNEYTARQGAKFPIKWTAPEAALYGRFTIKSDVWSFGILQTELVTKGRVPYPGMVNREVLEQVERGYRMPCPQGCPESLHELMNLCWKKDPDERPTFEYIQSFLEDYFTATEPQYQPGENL
Misshapen-like kinase 1 (Homo sapiens), sequence (Q8N4C8 whole entry, looked up, canonical isoform): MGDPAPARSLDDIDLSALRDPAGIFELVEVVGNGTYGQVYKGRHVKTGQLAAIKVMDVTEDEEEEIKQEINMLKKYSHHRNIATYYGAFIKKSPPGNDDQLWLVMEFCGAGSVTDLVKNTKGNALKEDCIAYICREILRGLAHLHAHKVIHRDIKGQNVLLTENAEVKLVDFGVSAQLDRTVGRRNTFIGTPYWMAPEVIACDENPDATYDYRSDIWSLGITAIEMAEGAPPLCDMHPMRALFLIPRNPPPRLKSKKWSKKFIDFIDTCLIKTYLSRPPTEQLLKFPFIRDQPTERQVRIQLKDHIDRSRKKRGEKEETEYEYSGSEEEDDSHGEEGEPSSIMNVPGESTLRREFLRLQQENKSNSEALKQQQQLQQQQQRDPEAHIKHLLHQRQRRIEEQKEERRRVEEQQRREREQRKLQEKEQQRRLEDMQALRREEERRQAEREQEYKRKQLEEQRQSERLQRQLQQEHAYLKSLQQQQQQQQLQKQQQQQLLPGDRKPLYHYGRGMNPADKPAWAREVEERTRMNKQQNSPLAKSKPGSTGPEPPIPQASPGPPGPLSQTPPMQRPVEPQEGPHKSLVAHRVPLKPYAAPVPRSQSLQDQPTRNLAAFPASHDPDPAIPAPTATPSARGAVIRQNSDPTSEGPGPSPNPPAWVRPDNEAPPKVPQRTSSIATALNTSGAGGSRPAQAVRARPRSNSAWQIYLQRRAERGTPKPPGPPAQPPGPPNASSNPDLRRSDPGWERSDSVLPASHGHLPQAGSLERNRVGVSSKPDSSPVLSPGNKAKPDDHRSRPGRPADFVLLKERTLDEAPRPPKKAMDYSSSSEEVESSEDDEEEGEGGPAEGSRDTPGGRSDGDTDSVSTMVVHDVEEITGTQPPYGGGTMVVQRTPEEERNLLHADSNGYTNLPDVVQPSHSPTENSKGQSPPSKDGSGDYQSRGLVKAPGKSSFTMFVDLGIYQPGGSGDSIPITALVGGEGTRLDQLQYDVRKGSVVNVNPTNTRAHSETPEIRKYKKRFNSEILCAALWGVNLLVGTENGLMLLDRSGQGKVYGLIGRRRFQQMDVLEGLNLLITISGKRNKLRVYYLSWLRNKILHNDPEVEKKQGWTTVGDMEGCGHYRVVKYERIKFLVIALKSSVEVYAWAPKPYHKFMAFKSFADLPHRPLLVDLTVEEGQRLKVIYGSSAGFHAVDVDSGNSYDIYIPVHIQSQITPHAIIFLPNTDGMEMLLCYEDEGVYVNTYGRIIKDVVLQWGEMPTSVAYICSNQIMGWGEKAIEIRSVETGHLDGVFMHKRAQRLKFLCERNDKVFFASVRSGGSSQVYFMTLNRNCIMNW

For orientation: EC50 means the concentration at which the effect is half-maximal. Low values mean greater potency, high ones weaker potency. For orientation: IC50 means the midpoint of a concentration-inhibition curve. As to `CN1CCC(c2nc(-c3ccc(F)cc3)c(-c3ccnc(Nc4ccc(C5CCNCC5)cc4)n3)s2)CC1`, the EC50 in the assay with Plasmodium falciparum was 25 nM. The molecule further came in with an IC50 in [1] of 0.3 nM.

For `CN1CCC(c2cc(-c3ccncc3)c(-c3ccc(F)cc3)[nH]2)CC1`, the EC50 with Plasmodium falciparum came to 450 nM. The same molecule came in with an IC50 in assay [1] of 6 nM.

The molecule `CN1CCC(c2nc(-c3cccc(S(C)(=O)=O)c3)c(-c3ccnc(N)n3)s2)CC1` yielded an EC50 in the assay with Plasmodium falciparum of 4570 nM. In assay [1], this molecule displayed an IC50 of 33 nM.

Take `Cc1nc(C2CCN(C)CC2)sc1-c1ccnc(Nc2ccc(N3CCNCC3)cc2)n1`: in [1], the IC50 was 149 nM.

One may read the inhibition as the percentage by which the read-out fell short of the control. Consider `CN1CCC(c2nc(-c3ccc(F)cc3)c(-c3ccnc(Nc4ccc(N5CCNCC5)cc4)n3)s2)CC1`, for which the inhibition in [2] is greater than 90%; in [3], greater than 90%; in the assay filed under Homo sapiens, less than 70%; in assay [4], greater than 90%; in assay [5], less than 70%; in assay [6], less than 70%. Moreover, the inhibition in assay [7], in assay [8] and in [9] was greater than 90% each time.

For `CN1CCC(c2nc(-c3ccc(F)cc3)c(-c3ccnc(Nc4ccc(N5CCN(C)CC5)cc4)n3)s2)CC1`, the EC50 in the assay with Plasmodium falciparum is 155 nM. 1 nM corresponded to half-maximal inhibition in assay [1] (IC50).

On to `CN1CCC(c2nc(-c3ccc(F)cc3)c(-c3ccncn3)s2)C1` (stereo not given), for which the midpoint of the response with Plasmodium falciparum, the EC50, lay at 144 nM. Also, the IC50 in [1] turned out to be 6 nM.

`CN1CCC(c2nc(C3CC3)c(-c3ccnc(Nc4ccc(N5CCNCC5)cc4)n3)s2)CC1`: it took 90 nM to reach a half-maximal effect in the assay on Plasmodium falciparum (EC50). The IC50 in [1] came out at 47 nM.

In the assay with Plasmodium falciparum, `CN1CCC(c2nc(-c3cccc(S(C)(=O)=O)c3)c(-c3ccnc(NCC4CC4)n3)s2)CC1` registered an EC50 of 1330 nM. Further, half-maximal inhibition in assay [1] (IC50) required 6 nM.

`CN1CCC(c2nc(-c3cccc(S(C)(=O)=O)c3)c(-c3ccnc(NC4CC4)n3)s2)CC1` had an IC50 in [1] of 17 nM.

`CN1CCC(c2nc(-c3ccc(F)cc3)c(-c3ccnc(N)n3)s2)CC1` had an EC50 with Plasmodium falciparum of 1810 nM. For the same molecule, in [1], the half-inhibitory concentration (IC50) was determined as 17 nM.

For `CN1CCC(c2nc(-c3cccc(S(C)(=O)=O)c3)c(-c3ccnc(NC4CCOCC4)n3)s2)CC1`, the EC50 in the assay with Plasmodium falciparum stood at 1560 nM. For the same molecule, the IC50 in assay [1] was 9 nM.

Regarding `CN(C)Cc1ccn2c(-c3ccnc(N)n3)c(-c3ccc(F)cc3)nc2c1`, in the assay on Plasmodium falciparum, it took 400 nM to reach a half-maximal effect (EC50). Also, the IC50 in assay [1] was found to be 3 nM.

In the assay on Plasmodium falciparum, `Fc1ccc(-c2nc(C3CCNCC3)sc2-c2ccnc(Nc3ccc(N4CCNCC4)cc3)n2)cc1` gave an EC50 of 73 nM. The molecule further registered an IC50 in [1] of 0.5 nM.

In the case of `CNc1nccc(-c2sc(C3CCN(C)CC3)nc2-c2ccc(F)cc2)n1`, the EC50 with Plasmodium falciparum was found to be 1490 nM. In [1], this molecule gave an IC50 of 15 nM.

Values taken from ChEMBL document CHEMBL4265899, “Trisubstituted thiazoles as potent and selective inhibitors of Plasmodium falciparum protein kinase G (PfPKG)” (Bioorg Med Chem Lett, 2018).
